Source: US20090311237A1, “Combination therapy using a soluble hyaluronidase and a bisphosphonate” (priority 2008, published 2009)
Several values for one entry are separate records, joined by “and”; a condition that tells them apart may be missing. Identical values can stand only once. Like-named read-outs stand apart in the source and are kept apart here.

Experiment: Phase 1 Stage 1 clinical pharmacokinetics of SC ZA co-administered with rHuPH20
Assay type: in vivo, human
Set-up: key to Mean Conc. / Median Conc.: BLQ = blow limit for quantitation
Conditions: serum, serum; for MAT: subcutaneous, 100 mL, 24000 Units rHuPH20, read-out: MAT (mean absorption time = SC MRT − IV MRT); for half-life: read-out: T½ λz (converted)
Experimental: A pharmacokinetic study of zoledronic acid (ZA) co-administered with rHuPH20 in human subjects was conducted. The primary objective of the study was to determine the bioavailability of zoledronic acid dosed via subcutaneous (SC) co-administration with human recombinant hyaluronidase PH20 (rHuPH20). […] The patients were administered the prescribed dosage formulations as follows: Cohorts 1-5 were administered a single subcutaneous infusion in a dosage volume of 100 ml at a rate of 3 mL/min. […] The dosing solution is administered via needle or catheter into the SC space of the left anterior thigh (midway between the anterior iliac crest and the cephalad border of the patella). For cohorts 1-5, the dosing solutions were administered by a controlled rate infusion pump at approximately 3 mL/minute. […] The dosing solutions were administered by syringe push bolus injection. […] Serum concentration of ZA was determined using a qualified LC-MS-MS assay after derivatization with diazomethane (Zhu, L S et al. (2006) Rapid Commun. […] The assay range was from 2.0 to 400 ng/mL with a lower limit of quantitation (LLOQ) at 2.0 ng/mL. […] Non-compartmental analysis was used for derivation of primary and secondary pharmacokinetic (PK) parameters. […] Summary statistics (mean, standard deviation, and median) were calculated using JMP or Microsoft Excel.

[1] = ZA 0.25 mg SC infusion + 24000 Units rHuPH20, 12 h post infusion, n=3
[2] = ZA 0.25 mg SC infusion + 24000 Units rHuPH20, 24 h post infusion, n=3
[3] = ZA 0.25 mg SC infusion + 24000 Units rHuPH20, 48 h post infusion, n=3

O=P(O)(O)C(O)(Cn1ccnc1)P(=O)(O)O [ZA, 1-hydroxy-2-(1H-imidazol-1-yl)ethylidene-1,1-bisphosphonic acid]
concentration at 6 h (human, sc, ZA 5 mg SC infusion + 24000 Units rHuPH20, 6 h post infusion, n=3, read-out: Median Conc.): 22.3 ng/mL
concentration at 8 h (human, sc, ZA 5 mg SC infusion + 24000 Units rHuPH20, 8 h post infusion, individual subjects, read-out: Zoledronic Acid Concentration): 9.44 ng/mL
concentration at 8 h (human, sc, ZA 5 mg SC infusion + 24000 Units rHuPH20, 8 h post infusion, n=3, read-out: Mean Conc.): 11 ng/mL
concentration at 8 h (human, sc, ZA 5 mg SC infusion + 24000 Units rHuPH20, 8 h post infusion, n=3, read-out: Median Conc.): 11 ng/mL
concentration at 12 h (human, sc, ZA 5 mg SC infusion + 24000 Units rHuPH20, 12 h post infusion, individual subjects, read-out: Zoledronic Acid Concentration): 3.91 ng/mL
concentration at 12 h (human, sc, ZA 5 mg SC infusion + 24000 Units rHuPH20, 12 h post infusion, n=3, read-out: Mean Conc.): 4.51 ng/mL
concentration at 12 h (human, sc, ZA 5 mg SC infusion + 24000 Units rHuPH20, 12 h post infusion, n=3, read-out: Median Conc.): 4.61 ng/mL
concentration at 24 h (human, sc, ZA 5 mg SC infusion + 24000 Units rHuPH20, 24 h post infusion, individual subjects, read-out: Zoledronic Acid Concentration): 2.15 ng/mL
concentration at 24 h (human, sc, ZA 5 mg SC infusion + 24000 Units rHuPH20, 24 h post infusion, n=3, read-out: Mean Conc.): 2.45 ng/mL
concentration at 24 h (human, sc, ZA 5 mg SC infusion + 24000 Units rHuPH20, 24 h post infusion, n=3, read-out: Median Conc.): 2.23 ng/mL
concentration at 48 h (human, sc, ZA 5 mg SC infusion + 24000 Units rHuPH20, 48 h post infusion, individual subjects, read-out: Zoledronic Acid Concentration): 1.28 ng/mL
concentration at 48 h (human, sc, ZA 5 mg SC infusion + 24000 Units rHuPH20, 48 h post infusion, n=3, read-out: Mean Conc.): 1.55 ng/mL
concentration at 48 h (human, sc, ZA 5 mg SC infusion + 24000 Units rHuPH20, 48 h post infusion, n=3, read-out: Median Conc.): 1.63 ng/mL
MAT (human, 0.5 mg, ZA 0.5 mg SC, individual subjects): 0.96 h
MAT (human, 1 mg, ZA 1 mg SC, individual subjects): 1.68 h
half-life (human, Subj 1, ZA 0.0045 mg/kg SC, inf 0.554 hr, PH20 23928 U): 1.88 h
half-life (human, Subj 8, ZA 0.0032 mg/kg SC, inf 0.531 hr, PH20 22944 U): 3.09 h
half-life (human, Subj 11, ZA 0.0033 mg/kg SC, inf 0.554 hr, PH20 23928 U): 2.2 h
half-life (human, Subj 21, ZA 0.0066 mg/kg SC, inf 0.556 hr, PH20 24000 U): 2.27 h
half-life (human, Subj 29, ZA 0.0339 mg/kg SC, inf 0.556 hr, PH20 24000 U): 8.7 h
half-life (human, Subj 32, ZA 0.0350 mg/kg SC, inf 0.556 hr, PH20 24000 U): 22 h
half-life (human, Subj 37, ZA 0.0791 mg/kg SC, inf 0.556 hr, PH20 24000 U): 23.4 h
half-life (human, Subj 38, ZA 0.0706 mg/kg SC, inf 0.554 hr, PH20 23952 U): 24.4 h
half-life (human, Subj 46, ZA 0.0877 mg/kg SC, inf 0.276 hr, PH20 12000 U): 20.8 h
half-life (human, Subj 71, ZA 0.0781 mg/kg SC, inf 0.250 hr, PH20 6000 U): 19.2 h
half-life (human, Subj 74, ZA 0.0794 mg/kg SC, inf 0.250 hr, PH20 6000 U): 23.7 h
Zoledronic Acid Concentration (ZA 0.25 mg SC infusion + 24000 Units rHuPH20, 0 h post infusion, individual subjects, listed as Zoledronic Acid): 4.69 ng/mL
Zoledronic Acid Concentration (ZA 0.25 mg SC infusion + 24000 Units rHuPH20, 10 min post infusion, individual subjects, listed as Zoledronic Acid): 4.97 ng/mL and 4.87 ng/mL
Zoledronic Acid Concentration (ZA 0.25 mg SC infusion + 24000 Units rHuPH20, 0.5 h post infusion, individual subjects, listed as Zoledronic Acid): 5.17 ng/mL and 6.25 ng/mL
Zoledronic Acid Concentration (ZA 0.25 mg SC infusion + 24000 Units rHuPH20, 1 h post infusion, individual subjects, listed as Zoledronic Acid): 5.67 ng/mL and 6.60 ng/mL
Zoledronic Acid Concentration (ZA 0.25 mg SC infusion + 24000 Units rHuPH20, 2 h post infusion, individual subjects, listed as Zoledronic Acid): 4.33 ng/mL and 5.44 ng/mL
Zoledronic Acid Concentration (ZA 0.25 mg SC infusion + 24000 Units rHuPH20, 4 h post infusion, individual subjects, listed as Zoledronic Acid): 3.45 ng/mL and 3.06 ng/mL
Zoledronic Acid Concentration (ZA 0.25 mg SC infusion + 24000 Units rHuPH20, 6 h post infusion, individual subjects, listed as Zoledronic Acid): 2.02 ng/mL and 1.35 ng/mL
Zoledronic Acid Concentration (ZA 0.25 mg SC infusion + 24000 Units rHuPH20, 8 h post infusion, individual subjects, listed as Zoledronic Acid): 1.11 ng/mL and 0.79 ng/mL
Zoledronic Acid Concentration (ZA 0.25 mg SC infusion + 24000 Units rHuPH20, 12 h post infusion, individual subjects): BLQ < (0.500) ng/mL
Mean Conc. [1]: BLQ
Median Conc. [1]: BLQ
Zoledronic Acid Concentration (ZA 0.25 mg SC infusion + 24000 Units rHuPH20, 24 h post infusion, individual subjects): BLQ < (0.500) ng/mL
Mean Conc. [2]: BLQ
Median Conc. [2]: BLQ
Zoledronic Acid Concentration (ZA 0.25 mg SC infusion + 24000 Units rHuPH20, 48 h post infusion, individual subjects): BLQ < (0.500) ng/mL
Mean Conc. [3]: BLQ
Median Conc. [3]: BLQ
Zoledronic Acid Concentration (ZA 0.5 mg SC infusion + 24000 Units rHuPH20, 0 h post infusion, individual subjects, listed as Zoledronic Acid): 13.60 ng/mL
